Experimental data reported in patent US7786165B2, “Aminophenylpropanoic acid derivative” (Takeda Pharmaceutical Company Limited, priority 2004, dated 2010).
Where a name gives a salt, the structure may show the parent alone.

biological target: T1, human GPR40 (Homo sapiens, UniProt O14842); assay: Determination of EC50 for human GPR40: intracellular calcium change by FLIPR in CHO cells stably expressing human GPR40; format: cell-based; conditions: CHO cell line stably expressing human GPR40, changes in intracellular calcium concentration, Fluo3-AM, read-out: EC50 (Receptor Function Modulating Action On GPR40)
T1 construct: expressed in transfected cells; host or cells: CHO cell line stably expressing human GPR40
T1 sequence (O14842 whole entry): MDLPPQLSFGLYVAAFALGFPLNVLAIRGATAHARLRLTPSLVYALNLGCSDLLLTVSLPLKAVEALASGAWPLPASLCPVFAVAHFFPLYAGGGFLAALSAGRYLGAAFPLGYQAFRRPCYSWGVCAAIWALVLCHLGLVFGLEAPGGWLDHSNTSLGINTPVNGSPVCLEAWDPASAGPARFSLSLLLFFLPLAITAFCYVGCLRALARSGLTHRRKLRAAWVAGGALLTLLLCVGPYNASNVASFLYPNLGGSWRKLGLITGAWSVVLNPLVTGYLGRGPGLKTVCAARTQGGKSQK
Protocol: Determination of EC50 of the Compound of the Present Invention for Human GPR40
For determination of EC50, CHO cell line that stably expressed human GPR40 was used. Unless otherwise indicated, the CHO cell line was cultured using α-MEM medium (Invitrogen) containing 10% fetal calf serum (Invitrogen).
The cells cultured to nearly confluent were rinsed with PBS (Invitrogen) on the previous day of the assay, peeled off with 0.05% Trypsin-EDTA solution (Invitrogen) and recovered by centrifugation. The number of the obtained cells was counted, and the cells were diluted such that 3×10^5 cells were contained per 1 mL of the medium, dispensed to a black welled 96-well plate (coster) by 100 μL per well and cultured overnight in a CO2 incubator. Various test compounds were added to the CHO cells thus prepared, and the changes in the intracellular calcium concentration were measured using FLIPR (Molecular Device). The below-mentioned pre-treatment was applied to measure changes in the intracellular calcium concentration by FLIPR.
First, an assay buffer for adding a fluorescence dye Fluo3-AM (DOJIN) to the cells, or for washing the cells immediately before FLIPR assay was prepared. To a solution of HBSS (Invitrogen, 1000 mL) to which 1M HEPES (pH 7.4, DOJIN, 20 mL) added (hereinafter HBSS/HEPES solution) was added a solution (10 mL) obtained by dissolving probenecid (Sigma, 710 mg) in 1N NaOH (5 mL), and adding and mixing an HBSS/HEPES solution (5 mL), and the resulting solution was used as an assay buffer. Next, Fluo3-AM (50 μg) was dissolved in dimethylsulfoxide (Wako, 21 μL), and an equivalent amount of 20% pluronic acid (Molecular Probes) was added and mixed. The solution was added to the assay buffer (10.6 mL) supplemented with fetal vovine serum (105 μL) to give a fluorescence dye solution. The medium of the CHO cells inoculated to the black welled 96-well plate on the previous day of assay was removed, the fluorescence dye solution was immediately dispensed by 100 μL per well and the cells were cultured in a CO2 incubator for 1 hr to allow intake of the fluorescence dye by the cells. The cells after the culture were washed with the above-mentioned assay buffer and set on FLIPR. The test compound was diluted with dimethylsulfoxide in advance, dispensed to polypropylene 96-well plate (sample plate) by […], and cryopreserved at −20° C. To the thawed sample plate was added an assay buffer containing 0.015% CHAPS (DOJIN) by 198 μL, and simultaneously set on FLIPR together with the cell plate. After the aforementioned pre-treatment, changes in the intracellular calcium concentration upon addition of various test compounds as measured by FLIPR. Based on the results, a dose-response curve of each test compound was formed and EC50 was calculated.

SMILES	EC50
COc1cccc(Oc2cc(C)c(-c3cccc(CNc4ccc(CCC(=O)O)c(F)c4)c3)c(C)c2)n1 [Example 164, 3-{2-fluoro-4-[({4′-[(6-methoxypyridin-2-yl)oxy]-2′,6′-dimethylbiphenyl-3-yl}methyl)amino]phenyl}propanoic acid dihydrochloride]	< 100 nM
CC(C)(C)c1cc(COc2ccccc2)n(Cc2ccc(CNc3ccc(CCC(=O)O)c(F)c3)cc2)n1 [Example 169, 3-{4-[(4-{[3-tert-butyl-5-(phenoxymethyl)-1H-pyrazol-1-yl]methyl}benzyl)amino]-2-fluorophenyl}propanoic acid dimethanesulfonate]	< 100 nM
CC(C)(C)c1cc(OCc2ccccc2)n(Cc2ccc(CNc3ccc(CCC(=O)O)c(F)c3)cc2)n1 [Example 171, 3-{4-[(4-{[5-(benzyloxy)-3-tert-butyl-1H-pyrazol-1-yl]methyl}benzyl)amino]-2-fluorophenyl}propanoic acid dimethanesulfonate]	< 100 nM
CCOCCS(=O)(=O)c1cc(C)c(-c2cccc(CNc3ccc(CCC(=O)O)c(F)c3)c2)c(C)c1 [Example 184, 3-{4-[({4′-[(2-ethoxyethyl)sulfonyl]-2′,6′-dimethylbiphenyl-3-yl}methyl)amino]-2-fluorophenyl}propanoic acid]	< 100 nM
Cc1cc(OCC2(O)CCS(=O)(=O)CC2)cc(C)c1-c1cccc(CNc2ccc(CCC(=O)O)c(F)c2)c1 [Example 188, 3-{2-fluoro-4-[({4′-[(4-hydroxy-1,1-dioxidotetrahydro-2H-thiopyran-4-yl)methoxy]-2′,6′-dimethylbiphenyl-3-yl}methyl)amino]phenyl}propanoic acid]	< 100 nM
CCN(CCOc1cc(C)c(-c2cccc(CNc3ccc(CCC(=O)O)c(F)c3)c2)c(C)c1)C(C)=O [Example 200, 3-(4-{[(4′-{2-[acetyl(ethyl)amino]ethoxy}-2′,6′-dimethylbiphenyl-3-yl)methyl]amino}-2-fluorophenyl)propanoic acid methanesulfonate]	< 100 nM
Cc1cc(OC2CCS(=O)(=O)CC2)cc(C)c1-c1cccc(CNc2ccc(CCC(=O)O)c(F)c2)c1 [Example 204, 3-{4-[({4′-[(1,1-dioxidotetrahydro-2H-thiopyran-4-yl)oxy]-2′,6′-dimethylbiphenyl-3-yl}methyl)amino]-2-fluorophenyl}propanoic acid methanesulfonate]	< 100 nM
O=C(O)CCc1ccc(NC2CCc3cc(OCc4ccccc4)ccc32)cc1 (stereo not shown) [Example 210, 3-(4-{[5-(benzyloxy)-2,3-dihydro-1H-inden-1-yl]amino}phenyl)propanoic acid]	< 100 nM
O=C(O)CCc1ccc(NC2CCc3c(Oc4ccccc4)cccc32)cc1 (stereo not shown) [Example 212, 3-{4-[(4-phenoxy-2,3-dihydro-1H-inden-1-yl)amino]phenyl}propanoic acid]	< 100 nM
Cc1cccc(C)c1-c1cccc2c1CCC2Nc1ccc(CCC(=O)O)c(F)c1 (stereo not shown) [Example 218, 3-(4-{[4-(2,6-dimethylphenyl)-2,3-dihydro-1H-inden-1-yl]amino}-2-fluorophenyl)propanoic acid]	< 100 nM
